From patent US8354381B2, “Peptide compositions for oral care systems” (E I du Pont de Nemours and Company, priority 2009, dated 2013)
Where no end group is shown, it is not given here. The star is where a group is joined. Biotin = O=C1N[C@H]2[C@H](CS[C@H]2CCCCC(=O)*)N1

Legend:
[1] = Peptide-mediated adhesion of streptavidin-coated gold particles on enamel, SEM; assay type: binding, bovine; conditions: 20 μM peptide, then 50 nm streptavidin gold nanoparticles; SEM at 10000X
Procedure: Bovine enamel incisors were obtained from SE Dental (Baton Rouge, La.). Teeth are sectioned and cut into enamel slabs approx. 5 mm on each side using a DREMEL® saw with a diamond blade. The enamel blocks are cleaned and place each in a plastic microcentrifuge tube.
Each enamel block was incubated for 45 min in phosphate buffered saline with 0.1% TWEEN® 20 (PBST) and 1 mg/mL bovine serum albumin (BSA) at room temperature (22° C.). All blocks were rinsed with PBST twice while vortexing in the microcentrifuge tube. The peptides were first diluted to 10 mM in water and then a working concentration of 20 μM was prepared in PBST with 1 mg/mL BSA. Each sample was exposed to the peptide solution or a no peptide buffer control for 30 min at room temperature. The samples were slowly rotated during incubation. The enamel blocks were removed from the peptide solution and washed four times with PBST with vortexing.
50 nm gold nanoparticles functionalized with streptavidin were obtained from Nanocs Inc (New York, N.Y.) and diluted to 0.006% wt in PBST with 1 mg/mL BSA. All enamel samples were then exposed to the gold nanoparticle solution for 1 hr at room temperature with slow rotation. […]
Each enamel sample was examined with Electron Microscopy. […] Particles were counted per micrograph and the density of particle coverage was compared (Table 14).

[2] = system: pellicle coated enamel substrates; conditions: 20 μM biotinylated peptide, streptavidin-HRP, normalized to DenP03, three replicates
Procedure: A total of 20 synthetic peptides were manufactured using sequences obtained from Table 6. Peptides were obtained from SynBioSci Corp. (Livermore, Calif.) and included an additional sequence (SSRP; SEQ ID NO: 118) at the N-terminus and biotin labeled lysine at the C-terminus.
Enamel substrates were cut into approximately 7 mm squares and mounted on wax mounting for incubation in the mouth for 30 min to form a pellicle coated surface. The pellicle coated enamel substrates were removed from the wax backing and placed in well plates with the pellicle surface exposed as in Example 5. Each pellicle coated substrate was incubated for 1 h at room temperature (˜22° C.) with 1 mL of blocking buffer, consisting of 1 mg/mL BSA in PBST (Pierce BUPH™ #28372 with 0.1% TWEEN® 20). The blocking buffer was removed by aspirating the liquid out of each well. The tube was rinsed 2 times with wash buffer consisting of PBST. The wells were filled with 500 μL of 20 μM peptide solution which was prepared by diluting in blocking buffer. The samples were incubated for 30 min with slow shaking at 37° C. The non-binding peptide was removed by washing 6 times with PBST. Then, 500 μL of horseradish peroxidase/streptavidin conjugate (Pierce #22127), diluted 1:2000 in PBST, was added and incubated for 1 h at room temperature (˜22° C.). The conjugate solution was removed and was washed 4 times with PBST.
Each enamel substrate was removed from the well and washed again in a 15-mL test tube with 10 mL of PBST. Each enamel substrate was then mounted in a clean well plate with only the enamel surface exposed. A 1:1 solution of TMB substrate and H2O2 (200 μL) was added to each well and the color was allowed to develop for between 10 to 20 min, typically for 15 min, at room temperature (˜22° C.). Then, 100 μL of solution from each well was transferred to a 96 well reading plate containing stop solution (100 μL of 2 M H2SO4) in each well. The A450 was measured using a microplate spectrophotometer (Molecular Devices, Sunnyvale, Calif.). […] Each sequence was tested with three replicate enamel coated pellicle substrates.

Pellicle Surface = conditions: read-out: MB50; biotinylated peptide, 30 min in vivo pellicle on enamel, from Scatchard plots
Procedure: The pellicle coated enamel substrates were removed from the wax backing and placed in well plates with the pellicle surface exposed as in Example 5. […] The blocking buffer was removed by aspirating the liquid out of each well. […] The samples were incubated for 30 min with slow shaking at 37° C. The non-binding peptide was removed by washing 6 times with PBST. […] The conjugate solution was removed and was washed 4 times with PBST.
Each enamel substrate was removed from the well and washed again in a 15-mL test tube with 10 mL of PBST. Each enamel substrate was then mounted in a clean well plate with only the enamel surface exposed.

| Substance | Particles per μm^2 at 10000X [1] | O.D.450 (normalized) [2] | EC50 (Pellicle Surface) |
| --- | --- | --- | --- |
| TTYHYKNIYQESYQQRNPAVHHHHHH [DenP03-D] | 0.23 Particles per μm^2 | – | – |
| SSRPTTYHYKNIYQESYQQRNPAVK(Biotin) [DenP3-A] | – | 1.000 | 28 µM |
| TTYHYKNIYQESYQQRNPAVK(Biotin) [DenP03-C] | 1.75 Particles per μm^2 | – | – |
| SSRPHKNENIMQYNVNDRWHITPAK(Biotin) [DenP32-A] | – | 1.135 | 25 µM |
